Source: PMC5566973 (Frontiers in Pharmacology, 2017)
Where “and” joins values, the source holds several entries; their conditions need not be identical. Equal values may be shown once.

Biological target: T1, human MRP2 (Homo sapiens, UniProt Q92887)
T1 construct: purchased GenoMembrane (Kanagawa, Japan); host or cells: Sf9
Test: Vesicular transport assay, Sf9 membrane vesicles expressing human MRP2
Assay type: in vitro ADME
Settings: 1 μM, MgATP vs MgAMP
Description: The vesicular transport assay was implemented as described in the GenoMembrane™ vesicular transport kit protocol (GenoMembrane, Kanagawa, Japan) with minor changes. Briefly, vesicle stocks were thawed and diluted with assay buffer (50 mM MOPS-Tris, 70 mM KCl, and 7.5 mM MgCl2). […] MgAMP instead of MgATP was used as a control. Apart from these, 4 mM glutathione was also included in BCRP and MRP2 assays. Transport was terminated with ice cold assay buffer, and then samples were quickly transferred to a filter plate. Wells were immediately washed 5 times with 200 μL assay buffer and dried. The vesicles on the plate were dissolved in 50 μL of 80% methanol and centrifuged at 2,000 rpm for 2 min after collection, and repeating the above procedures. Mixed the two filtrates together and added the pre-cooled methanol. After centrifugation at 12,000 rpm for 5 min at 4°C, a 5 μL aliquot of supernatant was injected into the UPLC-ESI-MS/MS system for analysis. Furthermore, the uptake of NMQ (MDR1), LY (BCRP), and E217βG (MRP2) was used to evaluate the activity of specific vesicles.

T1 sequence (Q92887 whole entry): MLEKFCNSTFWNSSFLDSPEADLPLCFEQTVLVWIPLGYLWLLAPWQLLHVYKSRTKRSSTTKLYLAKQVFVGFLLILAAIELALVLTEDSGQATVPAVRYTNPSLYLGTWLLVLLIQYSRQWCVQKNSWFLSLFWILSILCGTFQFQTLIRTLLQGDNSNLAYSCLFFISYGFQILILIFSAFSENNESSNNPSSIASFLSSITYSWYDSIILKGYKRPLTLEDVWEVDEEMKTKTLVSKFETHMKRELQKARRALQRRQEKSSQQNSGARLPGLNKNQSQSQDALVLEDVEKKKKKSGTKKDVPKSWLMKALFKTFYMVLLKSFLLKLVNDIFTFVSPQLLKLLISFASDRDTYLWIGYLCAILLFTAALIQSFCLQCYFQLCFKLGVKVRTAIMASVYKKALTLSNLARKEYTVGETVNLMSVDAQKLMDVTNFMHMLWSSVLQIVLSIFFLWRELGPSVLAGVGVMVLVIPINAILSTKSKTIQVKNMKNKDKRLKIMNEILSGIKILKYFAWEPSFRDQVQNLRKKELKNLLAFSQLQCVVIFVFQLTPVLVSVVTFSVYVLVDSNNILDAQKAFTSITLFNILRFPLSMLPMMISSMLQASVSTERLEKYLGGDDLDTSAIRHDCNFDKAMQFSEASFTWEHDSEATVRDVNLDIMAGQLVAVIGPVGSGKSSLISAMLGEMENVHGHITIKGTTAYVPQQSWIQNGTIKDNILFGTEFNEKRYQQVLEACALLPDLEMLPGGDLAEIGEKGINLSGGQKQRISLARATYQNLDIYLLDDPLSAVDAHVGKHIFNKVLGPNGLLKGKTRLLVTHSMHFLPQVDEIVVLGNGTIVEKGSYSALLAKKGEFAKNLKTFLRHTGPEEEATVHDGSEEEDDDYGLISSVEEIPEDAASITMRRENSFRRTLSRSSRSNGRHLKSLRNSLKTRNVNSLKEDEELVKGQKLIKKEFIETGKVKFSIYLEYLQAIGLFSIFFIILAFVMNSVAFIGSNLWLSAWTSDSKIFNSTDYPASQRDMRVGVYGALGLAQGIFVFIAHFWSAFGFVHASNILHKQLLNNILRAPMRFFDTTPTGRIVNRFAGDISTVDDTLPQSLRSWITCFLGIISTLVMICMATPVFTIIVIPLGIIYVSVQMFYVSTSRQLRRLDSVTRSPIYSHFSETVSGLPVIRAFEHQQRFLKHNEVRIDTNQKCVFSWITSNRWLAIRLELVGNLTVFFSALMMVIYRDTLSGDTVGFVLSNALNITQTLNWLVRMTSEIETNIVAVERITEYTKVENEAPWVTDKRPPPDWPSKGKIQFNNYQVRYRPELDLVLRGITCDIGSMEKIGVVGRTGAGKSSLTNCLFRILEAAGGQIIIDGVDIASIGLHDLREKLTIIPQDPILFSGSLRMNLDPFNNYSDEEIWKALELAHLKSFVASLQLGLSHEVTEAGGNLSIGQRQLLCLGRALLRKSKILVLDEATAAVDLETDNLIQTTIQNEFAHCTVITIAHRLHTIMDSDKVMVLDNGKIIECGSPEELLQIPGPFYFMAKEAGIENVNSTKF

COc1ccc2c3c([nH]c2c1)C(C)=NCC3 [Harmaline]
uptake ratio (UR): < 2.00 and 1.35
